According to ChEMBL document CHEMBL1126063, “A novel probe for the cannabinoid receptor” (J Med Chem, 1992):

Tests used:
[1] = biological target: Cannabinoid receptor (Rattus norvegicus, UniProt Q9QZN9+P20272); experiment: Compound was evaluated for the competitive inhibition of [3H]3-(1,1-Dimethyl-heptyl)-9-hydroxymethyl-6,6-dimethyl-6a,7,8,9,10,10a-hexahydro-6H-benzo[c]chromen-1-ol to cannabinoid receptor from synaptosomal membranes of rat whole brain
[2] = test system: Columba livia; experiment: Effective dose injected to pigeons in drug discrimination test at a given period of 4.5 hours; assay type: functional; conditions: in Columbidae
[3] = test system: Columba livia; experiment: Effective dose injected to pigeons in drug discrimination test at a given period of 9.0 hours; assay type: functional; conditions: in Columbidae
[4] = test system: Columba livia; experiment: Effective dose injected to pigeons in drug discrimination test at a given period of 1.5 hours; assay type: functional; conditions: in Columbidae

| Compound | Ki [1] [pM] | ED50 [2] [µg/kg] | ED50 [3] [µg/kg] | ED50 [4] [µg/kg] |
| --- | --- | --- | --- | --- |
| CCCCCCC(C)(C)c1cc(O)c2c(c1)OC(C)(C)[C@@H]1CC=C(CO)CC21 (some centres not stated) | 181 | 2 | 2 | 4 |
| CCCCCCC(C)(C)c1cc(O)c2c(c1)OC(C)(C)[C@@H]1CC[C@@H](CO)CC21 (some centres not stated) | 45 | 2 | 3 | 5 |
| CCCCCCC(C)(C)c1cc(O)c2c(c1)OC(C)(C)C1CC=C(CO)CC21 (configuration not stated) | 466000 | – | – | – |
| CCCCCc1cc(O)c2c(c1)OC(C)(C)[C@@H]1CCC(C)=C[C@@H]21 [DRONABINOL] | – | 250 | 1210 | 160 |
